Values of other authors in patent US20250051276A1 (priority 2021, published 2025).

Tests used:
mice = conditions: hallucinogenic potential; cited from earlier work
5HT2A sensor [1] = conditions: cited from earlier work
5HT2A sensor [2] = conditions: cited from earlier work; remark: listed apart in the source

COc1ccc2c(CCN(C)C)c[nH]c2c1 [Compound 6-MeO-DMT, 6-MeO-DMT]
head-twitch response (HTR) (mice): does not produce a HTR | activation of the 5HT2A sensor assay in agonist mode (5HT2A sensor [1]): do not activate the 5HT2A sensor assay in agonist mode | competition with 5-HT in the 5HT2A sensor assay in antagonist mode (5HT2A sensor [2]): compete off 5-HT

COc1ccc2[nH]cc(CCN(C)C)c2c1 [Compound 5-MeO-DMT, 5-MeO-DMT]
head-twitch response (HTR) (mice): produces a robust, dose-dependent head-twitch response | activation of the 5HT2A sensor assay in agonist mode (5HT2A sensor [1]): activate the 5HT2A sensor assay in agonist mode

CCN(CC)CCc1c[nH]c2cc(F)ccc12 [Compound 6-F-DET, 6-F-DET]
activation of the 5HT2A sensor assay in agonist mode (5HT2A sensor [1]): do not activate the 5HT2A sensor assay in agonist mode | competition with 5-HT in the 5HT2A sensor assay in antagonist mode (5HT2A sensor [2]): can compete with 5HT binding to 5HT2A
